Results from PMC5584973, “Characterization of novel bangle lectin from Photorhabdus asymbiotica with dual sugar-binding specificity and its effect on host immunity” (PLoS Pathogens, 2017).
Read-outs that look alike come from different tables or passages of the source.

Columns and labels:
PHL [1] = molecular target: T1, PHL (Photorhabdus asymbiotica, UniProt C7BLE4); assay type: binding; conditions: for Median: calculated from hexaplicates; for relative binding / preference on glycan array: PHL 200 μg/ml
T1 sequence (C7BLE4 1-369): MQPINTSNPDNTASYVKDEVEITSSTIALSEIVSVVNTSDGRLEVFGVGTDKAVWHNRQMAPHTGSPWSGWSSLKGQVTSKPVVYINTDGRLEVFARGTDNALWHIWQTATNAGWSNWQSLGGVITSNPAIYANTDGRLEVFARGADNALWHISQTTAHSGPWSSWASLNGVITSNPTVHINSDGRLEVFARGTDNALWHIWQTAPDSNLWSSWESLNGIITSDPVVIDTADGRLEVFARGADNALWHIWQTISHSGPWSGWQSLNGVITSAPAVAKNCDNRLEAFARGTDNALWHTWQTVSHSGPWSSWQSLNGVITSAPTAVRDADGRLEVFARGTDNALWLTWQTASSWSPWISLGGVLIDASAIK

PHL [2] = molecular target: T1, PHL; test: Haemagglutination inhibition assay with PHL; assay type: cell-based; conditions: for Potency towards L-fucose: haemagglutination inhibition, from MIC; for MIC (minimal inhibitory concentration) of haemagglutination by PHL: microscopy
Method: A haemagglutination inhibition assay was performed to determine the specificity and semi-quantitative affinity of PHL interaction with the saccharides. A wide range of monosaccharides at concentrations from 50 mM to 0.5 mM were used for determining the lowest inhibiting concentration. A 20 μl mixture composed of 5 μl PHL (2mg/ml), 5 μl saccharide, and 10 μl 10% RBCs was prepared (all components of reaction were in PBS buffer). After 10 minutes, the reaction was observed using a Levenhuk microscope.

PHL [3] = molecular target: T1, PHL; test: SPR inhibition of PHL binding to immobilized L-fucoside; conditions: for Potency relative to L-Fuc: SPR inhibition, from IC50; for IC50: SPR, PHL 0.25 μM binding to immobilized L-fucoside, 25°C, read-out: IC50
Method: (§1) SPR inhibition experiments were performed using the same conditions described above. The PHL lectin (0.25 μM final concentration) was mixed with various concentrations of inhibitors (1M – 0.01 mM) and injected onto the sensor chip. Pure PHL lectin was used as a control (0% inhibition). The response of the lectin bound to the sugar surface at equilibrium was plotted against the concentration of inhibitor in order to determine IC50.

PHL [4] = molecular target: T1, PHL; test: Isothermal titration calorimetry (ITC); assay type: binding; conditions: for binding stoichiometry: fitted
Method: (§2) ITC experiments were performed using an ITC200 calorimeter (Malvern, England). Experiments were performed at 25°C in buffer A (300 mM NaCl, 20 mM Tris/HCl, pH 7.5). Carbohydrate ligands were dissolved in the same buffer. Protein in the cell (50 μM) was titrated by consecutive addition (2 μl) of the ligand in the syringe (1.5–50 mM) while stirring at 1000 rpm. Control experiments performed with injections of buffer in the protein solution yielded insignificant signals. Integrated heat effects were analyzed by nonlinear regression using a single-site binding model in Origin 7 (Microcal). The experimental data fitted to a theoretical titration curve brought up stoichiometry (n), association constant Ka, and the enthalpy of binding ΔH. The other thermodynamic parameters such as free energy (ΔG) and […] (ΔS) were calculated from the equation ΔG = ΔH-TΔS = -RTlnKa, where T is the absolute temperature and R is the molar gas constant (8.314 J.mol^-1.K^-1). At least two independent titrations were carried out for each tested ligand.

[5] = test system: phenoloxidase (PO) in haemolymph of G. mellonella; test: Phenoloxidase activity in insect haemolymph; assay type: biochemical, Galleria mellonella; conditions: 0.2M sugar, PHL 475 μg
Method: Larvae of the greater wax moth, Galleria mellonella, were reared on an artificial diet at 30 ± 1°C in constant darkness. Haemolymph was collected from the seventh instar larvae by cutting a proleg and pooling the haemolymph into a tube containing phenylthiourea (1 mg/ml in PBS; haemolymph mixed with phenylthiourea in the ratio 9:1 [v/v]) or used directly for the determination of phenoloxidase activity.
PO activity was measured according to previously published studies. Haemolymph of G. mellonella (5 μl) was collected directly to 95 μl of PHL (475 μg in PBS for all experiments except dose-dependence assay where different dilutions of PHL were used), PLL (475 μg in PBS), BSA (475 μg in PBS) or PBS (pH 7.4) and incubated for 10 min at room temperature. After incubation, 40 μl of reaction mixture was transported to the microplate well and 160 μl of 3,4-dihydroxy-DL-phenylalanine (3 mg/ml in PBS) was added as substrate. The reaction was allowed to proceed for 30 min, and absorbance was measured in 2-min intervals at 492 nm with a Sunrise reader (Tecan, Switzerland). PO activity was expressed as linear increase in absorbance per minute. For the inhibition assay, PHL was pre-incubated with 0.2M L-Fuc or Me-α-L-Fuc for 10 min at room temperature prior to mixing with haemolymph.

PHL [6] = test: SPR inhibition of PHL binding to immobilized L-fucoside; design: species or system Photorhabdus asymbiotica; conditions: IC50 from SPR inhibition, PLL data ref 21
Method: as §1

PHL [7] = test: Isothermal titration calorimetry (ITC); assay type: binding, Photorhabdus asymbiotica; conditions: ITC, PLL data ref 21
Method: as §2

[8] = glycan array signal of PHL per printed glycan, microarray chip (Semiotic, Moscow; Slide number 10085636), 488 channel
[9] = glycan array signal of labelled PHL for the printed glycan/polysaccharide, Semiotic slide 10085636
[10] = ITC at 25°C, stoichiometry fixed to 3, read-out: KD (n = 3)
[11] = ITC at 25°C, stoichiometry fixed to 4, read-out: KD (n = 4)
[12] = ITC, stoichiometry not fixed, read-out: equilibrium dissociation constant

With 6-O-Su-Galβ1-3GalNAcα-sp3 the Median (PHL [1]; [8]) was 81.
GlcNAcβ-sp8 showed a Median (PHL [1]; [8]) of 78.
In the case of 4,6-O-Su2-Galβ1-4GlcNAcβ-sp2, the Median (PHL [1]; [9]) is reported as 77.
For C[C@@H]1O[C@@H](O[C@H]2C(O)O[C@H](CO)[C@H](O)[C@@H]2O[C@H]2O[C@H](CO)[C@H](O)[C@H](O)[C@H]2O)[C@@H](O)[C@H](O)[C@@H]1O (stereo partly shown) [BGB trisaccharide], the “Potency towards L-fucose” value (PHL [2]) was 10, the “Potency relative to L-Fuc” value (PHL [3]) was 5.15 and the “Potency relative to L-Fuc” value (PHL [3]; listed as blood group B trisaccharide) was about 5. For the same molecule, the IC50 (PHL [3]) was 70 µM, the Kd (PHL [4]; [10]) was 570 ± 10 µM and the Kd (PHL [4]; [11]) was 510 ± 10 µM. For the same molecule, the binding stoichiometry (PHL [4]; ITC) was about 4.3, the Kd (PHL [4]; [12]) was 490 µM and the “relative binding / preference on glycan array” value (PHL [1]) was “strongest binding to human-related oligosaccharides”.
6-O-Su-Galβ1-3(6-O-Su)GlcNAcβ-sp2 was tested, and the Median (PHL [1]; [8]) was 87.
In the case of O=C[C@H](O)[C@@H](O)[C@@H](O)[C@H](O)CO [D-Gal, D-galactose], the “Potency towards L-fucose” value (PHL [2]) is reported as under 0.01, the “Potency relative to L-Fuc” value (PHL [3]) is reported as under 0.01 and the Kd (PHL [4]; KD (n = 3), ITC at 25°C, stoichiometry fixed to 3) is reported as 890 ± 20 µM. It also gave a Kd (PHL [4]; KD (n = 4), ITC at 25°C, stoichiometry fixed to 4) of 830 ± 20 µM.
“4,6-O-Su2-GalNAcβ1-4-(3-O-Ac)GlcNAcβ-sp3” gave a Median (PHL [1]; [8]) of 81.
4-O-Su-Galβ1-4GlcNAcβ-sp3 was tested, and the Median (PHL [1]; [9]) was 77.
With COC[C@H]1O[C@@H](O[C@@H]2[C@@H](OC)[C@@H](OC)[C@H](Oc3ccc(OCCN)cc3)O[C@H]2C)[C@H](O)[C@@H](OC)[C@@H]1O [3,6-O-Me2-Glcβ1-4(2,3-O-Me2)Rhaα-O-(p-C6H4)-OCH2CH2NH2] the “relative binding / preference on glycan array” value (PHL [1]) was “most preferred complex saccharide”.
For OC[C@H]1OC(O)[C@H](O)[C@@H](O)[C@@H]1O (stereo partly drawn) [D-Glc], the “Potency towards L-fucose” value (PHL [2]) was under 0.01, the “Potency relative to L-Fuc” value (PHL [3]) was under 0.01 and the Kd (PHL [4]; [10]) was 3550 ± 150 µM. The Kd (PHL [4]; [11]) was 3480 ± 150 µM.
With CO[C@@H]1O[C@@H](C)[C@@H](O)[C@@H](O)[C@@H]1O [Me-α-L-Fuc, Methyl-α-L-fucopyranoside] the “PHL activation of melanisation in the presence of sugar” value [5] was “inhibited”, the “Potency towards L-fucose” value (PHL [2]) was 8 and the “MIC (minimal inhibitory concentration) of haemagglutination by PHL” value (PHL [2]) was 0.390 mM. The IC50 (PHL [3]) was 40 µM, the “fold better inhibition effect for PHL than for PLL” value (PHL [6]) was 42 fold and the Kd (PHL [4]; [10]) was 260 ± 40 µM. The Kd (PHL [4]; [11]) was 210 µM, the binding stoichiometry (PHL [4]; ITC) was “approx. 2.9” and the Kd (PHL [4]; [12]) was 270 µM. The “fold higher affinity of PHL than PLL” value (PHL [7]) was “approx. 4 fold”.
For CC(=O)N[C@H]1C(O)O[C@H](CO)[C@@H](O[C@@H]2O[C@@H](C)[C@@H](O)[C@@H](O)[C@@H]2O)[C@@H]1O (stereo partly shown) [Fucα1-4GlcNAc], the “Potency towards L-fucose” value (PHL [2]) was 1.3, the “MIC (minimal inhibitory concentration) of haemagglutination by PHL” value (PHL [2]) was 2.500 mM and the “Potency relative to L-Fuc” value (PHL [3]) was 0.49. For the same molecule, the IC50 (PHL [3]) was 730 µM, the Kd (PHL [4]; [10]) was 4460 ± 310 µM and the Kd (PHL [4]; [11]) was 4370 ± 310 µM.
With GlcNAcβ1-4Galβ1-4GlcNAcβ-sp2 the Median (PHL [1]; [8]) was 86.
Work on CC(=O)N[C@H]1[C@H](OCCCN)O[C@H](CO)[C@@H](O[C@@H]2O[C@H](CO)[C@H](OS(=O)(=O)O)[C@H](OS(=O)(=O)O)[C@H]2O)[C@@H]1O [3,4-O-Su2-Galβ1-4GlcNAcβ-sp3] yielded a Median (PHL [1]; [8]) of 87.
With 6-O-Su-Galβ1-3GlcNAcβ-sp3 the Median (PHL [1]; [9]) was 73.
NCC(O)C(O)C(O)C(O)CO (stereo not shown) [HOCH2(HOCH)4CH2NH2] was tested, and the Median (PHL [1]; [9]) was 70.
Galβ1-6Galβ-sp4 gave a Median (PHL [1]; [8]) of 85.
Work on 6-H2PO3Manα-sp3 yielded a Median (PHL [1]; [8]) of 83.
